Reference: paper PMC11945475, “Nasal Administration of a Nanoemulsion Based on Methyl Ferulate and Eugenol Encapsulated in Chitosan Oleate: Uptake Studies in the Central Nervous System” (Pharmaceutics, 2025)

Columns and labels:
[1] = rat, Fer 1 mg/kg i.v.; cited from earlier work
[2] = Intravenous administration of Fer-Me to rats (bloodstream and CSF pharmacokinetics); assay type: in vivo, rat
Protocol: Charles River laboratories, Calco, Italy) bloodstream and CSF. […] The sample size (4 rats/group) has been chosen based on our previous studies. The experimental procedures were approved by the Italian Ministry of Health and were performed in accordance with the European Communities Council Directive of September 2010 (2010/63/EU). According to the ARRIVE guidelines, all possible efforts were made to minimize animal pain and discomfort and to reduce the number of experimental subjects. Fer-Me solution (2.5 mg/mL final concentration, 15% v/v EtOH content) was prepared by first dissolving Fer-Me in EtOH and then adding this latter solution to a saline solution (0.9% NaCl). […] The aqueous phase was then subjected to a double extraction with 1 mL of H2O-saturated ethyl acetate. […] Data were acquired and processed through CLASS-VP Software; version 7.2.1 (Shimadzu Italia, Milan, Italy). The mobile phase was eluted under isocratic conditions (0.8 mL/min) and was constituted by a mixture of acetic acid in H2O (0.4% v/v) and MeOH, whose ratio was 40:60 (v/v). The UV-Vis detector was set at 320 nm for the detection of Fer-Me, its hydrolysis product Fer, and Caf-Me, which was utilized as an internal standard during blood sample extraction. […] The average recoveries were approximately 40% for Fer and 58% for Fer-Me. For this reason, the concentrations of these compounds were determined by their peak area ratio with respect to the internal standard (Caf-Me). […] Fer-Me in vivo half-life (t1/2) in the rats' bloodstream was determined using nonlinear regression (exponential decay) of concentration values quantified at appropriate time intervals after infusion, further validated by applying linear regression to the semi-logarithmic plot.

[3] = parameters: method as in PMID 33547615; conditions: rats, Fer at doses up to 40 mg/kg; cited from earlier work
[4] = rat, after Fer-Me 10 mg/kg i.v. infusion

## COc1cc(/C=C/C(=O)O)ccc1O [Fer, ferulic acid]
[1]
  AUC in CSF: 3.3 ± 0.3 µg·min/mL
  AUC in the bloodstream: 244 ± 13 µg·min/mL
  Cmax in CSF: 0.08 ± 0.01 µg/mL
  Tmax in CSF: 1 h
[2]; rat bloodstream, after Fer-Me 10 mg/kg i.v.
  Fer AUC as percentage of the Fer-Me AUC value: 1.3%
[2]; rat, about 20 min after end of Fer-Me 10 mg/kg i.v. infusion
  Fer concentration in the bloodstream: 0.205 ± 0.050 µg/mL
[2]; [4]
  AUC of hydrolysis product Fer in the bloodstream: 8.4 ± 0.8 µg·min/mL
  C0 of hydrolysis product Fer in the bloodstream: 0.209 ± 0.001 µg/mL
[2]; rat, from the end of Fer-Me 10 mg/kg i.v. infusion
  time within which Fer blood concentration decreased to zero: ≤ 60 min
[3]
  side effects: no side effects
